Measurements taken from patent US20090318555A1, “Treatment of Vertigo with Acetyl-L-Leucine” (PIERRE FABRE MEDICAMENT, priority 2006, published 2009).

Columns and labels:
[1] = tested on: unilateral vestibular neurectomy in the cat; assay: Compensation of vestibular deficits (support polygon), Example 2; assay type: in vivo; settings: IV during first three days post-lesion
Method: The experiment involves 18 cats from the breeder IFA-CREDO (France). The cats undergo a unilateral vestibular neurectomy of the left side, as in example 1. The animals are divided into three groups comprising one group treated with racemic coumpound (acetyl-DL-leucine) (groups 1) and two treated with acetyl-L-leucine (groups 2 and 3), as follows: • experimental group one (six cats), treated after vestibular lesion with the racemic compound (acetyl-DL-leucine) at 30 mg/kg per day, • experimental group two (six cats), treated after vestibular lesion with the L enantiomer (acetyl-L-leucine) at 15 mg/kg per day, • experimental group three (six cats), treated after vestibular lesion with the L enantiomer (acetyl-L-leucine) at 7.5 mg/kg per day, Pharmacological treatments for experimental groups 1 to 3 begin on the day of the lesion. Treatment is administered by intravenous (IV) route during the first three days post-lesion.

[2] = tested on: unilateral vestibular neurectomy model in the cat; assay: Support polygon surface area (postural syndrome), Example 1; assay type: in vivo; settings: for return of support polygon surface area to normal / support polygon surface area compared to control animals: 15 mg/kg/day IV 3 days then 30 mg/kg/day oral; for support polygon surface area compared to control animals: post-lesion (D isomer: two days post-lesion and evolution)
Method: The cats undergo a unilateral vestibular neurectomy on the left side. Surgery is performed using a surgical microscope, under rigorously aseptic conditions, according to a translabyrinthine approach. After incision of the tissues located behind the left auricle of the animal, an opening is made in the tympanic bulla using a diamond drill to give access to the inner ear. The labyrinth cavity is approached by an opening created above the oval window. This precisely-made opening exposes cranial […] which are sectioned at the postganglionic level. The internal auditory meatus is obturated with a cicatrizing gelatin sponge and the surface tissues are restitched. The animals are given analgesics for 48 hours and antibiotics for five days postoperative. The animals are divided into four groups comprising three treatment groups and one untreated control group, as follows: • control group (five cats), untreated after vestibular lesion but receiving a placebo, • experimental group one (four cats), treated with the racemic compound (acetyl-DL-leucine), • experimental group two (four cats), treated with the first enantiomer (acetyl-L-leucine), • experimental group three (four cats), treated with the second enantiomer (acetyl-D-leucine). Pharmacological treatments for experimental groups one, two and three begin on the day of the lesion and continue until complete recovery (45 days for untreated control animals). In these three lesioned groups, treatment is administered by intravenous (IV) route during the first three days post-lesion and is followed by oral route (OR) treatment until recovery is complete. The doses administered are 30 mg/kg/day IV then 60 mg/kg/day OR for the racemate, and 15 mg/kg/day IV then 30 mg/kg/day OR for each of the two enantiomers. For the oral route, the substance is mixed with food; for the IV route, injection takes place after local anesthesia. Support polygon surface area is a good indicator of the degree of postural stability in the cat. In general, it is quite small in the normal animal (roughly 50 cm^2). It increases considerably, by four to eight times, after a unilateral vestibular lesion. This increase in polygon surface area reflects tonic asymmetries in the extensor and flexor muscles of the fore and hind feet and the loss of certain static equilibrium reflexes (Magnus reflexes, for example). Thus, postoperative evolution of this indicator is a good measure of the animal's static equilibrium capacity. In addition, this indicator has prognostic value with respect to dynamic equilibrium performance, as measured by the rotating beam test. Support polygon surface area measurements are taken with the animal in an upright position on all four legs, at rest, using an automated three-dimensional movement analysis system with virtual markers (Codamotion optoelectronic system coupled with a SIMI alignment device). Surface area measurements (in cm^2) taken during the post-lesion period are standardized with respect to pre-lesion values. Thus, each animal acts as its own control (unit equivalent). This method enables direct between-group comparisons and within-group averaging.

[3] = tested on: unilateral vestibular neurectomy model in the cat; assay: Post-lesion horizontal spontaneous vestibular nystagmus, Example 1; assay type: in vivo; settings: for nystagmus disappearing / nystagmus frequency compared to control animals: 15 mg/kg/day IV 3 days then 30 mg/kg/day oral
Method: The cats undergo a unilateral vestibular neurectomy on the left side. Surgery is performed using a surgical microscope, under rigorously aseptic conditions, according to a translabyrinthine approach. After incision of the tissues located behind the left auricle of the animal, an opening is made in the tympanic bulla using a diamond drill to give access to the inner ear. The labyrinth cavity is approached by an opening created above the oval window. This precisely-made opening exposes cranial […] which are sectioned at the postganglionic level. The internal auditory meatus is obturated with a cicatrizing gelatin sponge and the surface tissues are restitched. The animals are given analgesics for 48 hours and antibiotics for five days postoperative. The animals are divided into four groups comprising three treatment groups and one untreated control group, as follows: • control group (five cats), untreated after vestibular lesion but receiving a placebo, • experimental group one (four cats), treated with the racemic compound (acetyl-DL-leucine), • experimental group two (four cats), treated with the first enantiomer (acetyl-L-leucine), • experimental group three (four cats), treated with the second enantiomer (acetyl-D-leucine). Pharmacological treatments for experimental groups one, two and three begin on the day of the lesion and continue until complete recovery (45 days for untreated control animals). In these three lesioned groups, treatment is administered by intravenous (IV) route during the first three days post-lesion and is followed by oral route (OR) treatment until recovery is complete. The doses administered are 30 mg/kg/day IV then 60 mg/kg/day OR for the racemate, and 15 mg/kg/day IV then 30 mg/kg/day OR for each of the two enantiomers. For the oral route, the substance is mixed with food; for the IV route, injection takes place after local anesthesia. Recovery of oculomotor functioning is quantified by measuring post-operative regression of spontaneous vestibular nystagmus to light. This nystagmus is recorded in the horizontal plane by a video camera system that records eye movements (SIMI system). Nystagmus frequency is determined by the number of beats per unit time (10 seconds). Recordings are made daily until spontaneous nystagmus disappears.

[4] = tested on: unilateral vestibular neurectomy model in the cat; assay: Kinetic equilibrium functioning, rotating beam test, Example 1; assay type: in vivo; settings: for compensation for kinetic equilibrium compared to control animals / return to maximum performance (MP): rotating beam, 15 mg/kg/day IV 3 days then 30 mg/kg/day oral
Method: The cats undergo a unilateral vestibular neurectomy on the left side.
Surgery is performed using a surgical microscope, under rigorously aseptic conditions, according to a translabyrinthine approach. After incision of the tissues located behind the left auricle of the animal, an opening is made in the tympanic bulla using a diamond drill to give access to the inner ear. The labyrinth cavity is approached by an opening created above the oval window. This precisely-made opening exposes cranial […] which are sectioned at the postganglionic level. The internal auditory meatus is obturated with a cicatrizing gelatin sponge and the surface tissues are restitched. The animals are given analgesics for 48 hours and antibiotics for five days postoperative.
The animals are divided into four groups comprising three treatment groups and one untreated control group, as follows: • control group (five cats), untreated after vestibular lesion but receiving a placebo, • experimental group one (four cats), treated with the racemic compound (acetyl-DL-leucine), • experimental group two (four cats), treated with the first enantiomer (acetyl-L-leucine), • experimental group three (four cats), treated with the second enantiomer (acetyl-D-leucine).
Pharmacological treatments for experimental groups one, two and three begin on the day of the lesion and continue until complete recovery (45 days for untreated control animals). In these three lesioned groups, treatment is administered by intravenous (IV) route during the first three days post-lesion and is followed by oral route (OR) treatment until recovery is complete. The doses administered are 30 mg/kg/day IV then 60 mg/kg/day OR for the racemate, and 15 mg/kg/day IV then 30 mg/kg/day OR for each of the two enantiomers. For the oral route, the substance is mixed with food; for the IV route, injection takes place after local anesthesia.
The rotating beam test, as described by Xerri and Lacour (Xerri C, Lacour M: Compensation for postural and kinetic deficits following unilateral vestibular neurectomy in the cat. Role of sensory-motor activity [Compensation des déficits posturaux et cinétiqtues après neurectomie vestibulaire unilatérale chez le chat. Rôle de l'activité sensori-motrice], Acta Otolaryngol (Stockh) (1980) [in French], 90, 414-424) makes it possible to quantify kinetic equilibrium functioning deficits and recovery as a function of postoperative time.
Two compartments are connected by a cylindrical beam 3 m in length and 12 cm in diameter, placed 1.2 m above the floor. The beam can turn around its central axis with linear tangential velocities varying from 0 m/min to 37 m/min. Before the unilateral vestibular lesion (preoperative period), the cats are conditioned to move along this beam. Their maximum performance (MP), which corresponds to the highest beam rotation velocity not causing the animal to fall, is determined for four consecutive tests. In general, eight to 12 daily training sessions of approximately one hour are adequate for the animal to reach its MP. Inter-animal MP variations are relatively small (extreme values recorded: 27 m/min to 37 m/min; mean: 33 m/min; standard deviation: 2.08 m/min). For each cat, MP values obtained following unilateral vestibular neurectomy are expressed as a percentage of MP recorded at the end of training during the preoperative period.

[5] = tested on: unilateral vestibular neurectomy model; assay: Overall functional restoration in animals having undergone unilateral vestibular neurectomy; assay type: in vivo, cat; settings: present experimental model
Description: The selected experimental model and protocol are recognized in the field of neurosensory research as targeting the study of disorders associated with vertigo crises. The cats undergo a unilateral vestibular neurectomy on the left side. The animals are divided into four groups comprising three treatment groups and one untreated control group, as follows: • control group (five cats), untreated after vestibular lesion but receiving a placebo, • experimental group one (four cats), treated with the racemic compound (acetyl-DL-leucine), • experimental group two (four cats), treated with the first enantiomer (acetyl-L-leucine), • experimental group three (four cats), treated with the second enantiomer (acetyl-D-leucine). Pharmacological treatments for experimental groups one, two and three begin on the day of the lesion and continue until complete recovery (45 days for untreated control animals). In these three lesioned groups, treatment is administered by intravenous (IV) route during the first three days post-lesion and is followed by oral route (OR) treatment until recovery is complete. The doses administered are 30 mg/kg/day IV then 60 mg/kg/day OR for the racemate, and 15 mg/kg/day IV then 30 mg/kg/day OR for each of the two enantiomers. For the oral route, the substance is mixed with food; for the IV route, injection takes place after local anesthesia.

[6] = tested on: postural and kinetic deficit compensation in lesioned cat; settings: both after IV 28 mg/kg first three days post-lesion and after (IO) 28 mg/kg first 30 days postoperative, vs untreated lesioned animals; cited from earlier work
[7] = acetyl-L-leucine used in a 1/2 dose of the racemate
[8] = cat, 15 mg/kg/day IV then 30 mg/kg/day oral

| Structure (SMILES) | restoration of postural, locomotor and oculomotor functions deteriorated by a vestibular lesion [1] | activity on compensation for postural deficits relative to acetyl-DL-leucine [2, 7] | return of support polygon surface area to normal ([2]; cat) | support polygon surface area compared to control animals ([2]; cat) | activity on compensation for ocular nystagmus relative to acetyl-DL-leucine [3, 7] | nystagmus disappearing ([3]; cat) | nystagmus frequency compared to control animals ([3]; cat) | activity on compensation for kinetic equilibrium relative to acetyl-DL-leucine [4, 7] | compensation for kinetic equilibrium compared to control animals ([4]; cat) | return to maximum performance (MP) ([4]; cat) | improvement / restorative activity compared to placebo [5] | beneficial effect on support polygon parameter [2, 8] | beneficial effect on nystagmus parameter [3, 8] | beneficial effect on kinetic equilibrium parameter [4, 8] | shortening of the vestibular compensation time constant [6] |
| --- | --- | --- | --- | --- | --- | --- | --- | --- | --- | --- | --- | --- | --- | --- | --- |
| CC(=O)N[C@@H](CC(C)C)C(=O)O [acetyl-L-leucine] | efficiently restore | greater than or equal to that of acetyl-DL-leucine | 16 days post-lesion | significantly smaller | greater than or equal to that of acetyl-DL-leucine | four | lower | greater than or equal to that of acetyl-DL-leucine | much more rapid than in the control animals | 18 days post-lesion | restorative activity is only provided by the acetyl-L-leucine isomer | – | – | – | – |
| CC(=O)N[C@H](CC(C)C)C(=O)O [acetyl-D-leucine] | – | – | 40 days post-lesion | identical to that observed in the control animals | – | eight | identical to that of nystagmus observed in the control animals | – | identical to that observed in the control animals | 42 days post-lesion | does not provide any improvement compared to a placebo | does not have any beneficial effect | does not have any beneficial effect | does not have any beneficial effect | – |
| CC(=O)NC(CC(C)C)C(=O)O (racemic) [acetyl-DL-leucine] | – | – | – | – | – | – | – | – | – | – | – | – | – | – | 50% |
